Tests used:
[1] = system: human Tau; test: Sarkosyl fractionation and Tau immunoblot, hTau-KI primary cortical neurons; type: cell-based; details: 1 μM, 12 hours, vs DMSO
Description: (FIG. 5A) Effect of neuroproteasome-specific inhibitor iBEp on Tau aggregation in primary neurons. […] Quantification of soluble and insoluble murine Tau (mTau) intensities normalized to soluble GAPDH. […] (FIG. 5B) Effect of neuroproteasome inhibition on aggregation of human Tau (hTau). […] (FIG. 5C) Generation of reversible neuroproteasome inhibitors to test effects of neuroproteasome inhibition. (Top) Structure of Sulfo-MG132 (SulfoMG). […] (FIG. 5D) Effect of reversible neuroproteasome inhibition using SulfoMG on Tau aggregation. […] Quantification of soluble and insoluble Tau intensities were normalized to soluble GAPDH. Data (right) are mean±SEM normalized respective to DMSO controls. […] (FIG. 5E) Testing iBEp permeability in vivo. […] 72 hours post injection, hippocampi were isolated and subjected to membrane fractionation without detergent. […] (FIG. 5F) Effect of neuroproteasome inhibition on Tau aggregation in vivo.

[2] = target: proteasome (Homo sapiens, UniProt P28072+P28074+Q99436); test: Efficacy against the proteasome relative to the parent inhibitor; type: biochemical
Description: We next tested the potency and selectivity of iBEp relative to Epoxomicin. Epoxomicin covalently and irreversibly binds the catalytic β subunits of the proteasome-therefore, the biotin moiety on iBEp serves as a tracer to detect whether proteasomes are inhibited by monitoring biotin signal on an SDS-PAGE gel (83, 87-89). […] This is supported by previous data that modification of the non-reactive end of epoxomicin has been shown not to change the selectivity of Epoxomicin for the proteasome (83, 87-89). […] We therefore chose doses of inhibitor where the effective concentration of the inhibitor was similar to previous studies using Epoxomicin alone and well within the acceptable range of efficacy given how potent Epoxomicin is as a proteasome inhibitor.
Many of our experiments rely on the use of iBEp because the biotin tracer on an irreversible and specific inhibitor allows us to track which proteasomes are inhibited. However, we wanted to validate our findings using a proteasome inhibitor with a distinct mechanism of action from Epoxomicin. We therefore modified MG132, a reversible peptide aldehyde proteasome inhibitor, with a sulfonated biotin linker on the nonreactive N-terminus (84). […] Instead, we turned to cellular and functional readouts of permeability. […]

Sulfo-MG132 [SulfoMG]
sarkosyl-insoluble Tau, hTau-KI neurons [1]: induces similar partitioning of hTau into the sarkosyl-insoluble fraction as iBEp
efficacy against the proteasome relative to the parent inhibitor [2]: significant inhibition of proteasomes using SulfoMG despite the moderate loss of efficacy compared to MG132
